Patent publication US20170066717A1, “NEW PHENYLAZETIDINECARBOXYLATE OR -CARBOXAMIDE COMPOUNDS” (INVENTIVA, priority 2014, published 2017)

Key:
[1] = molecular target: T1, NURR-1/RXRα (Homo sapiens, UniProt P19793); experiment: Transactivation test, NURR-1-Gal4/RXRα, luciferase reporter in Cos-7 cells; assay type: cell-based; conditions: for Emax: COS-7, induction level relative to reference XCT0135908 at 2×10^−5 M (=100%), read-out: hNurr1_RXRaFL Emax (%); for EC50: Cos-7 cells, NURR-1-Gal4/RXRα, luciferase reporter, read-out: hNurr1_RXRaFL EC50
T1 construct: expressed in transfected cells; host or cells: Cos-7 cells

[2] = molecular target: T2, NURR-1/RXRγ (Homo sapiens, UniProt P48443); experiment: Transactivation test, NURR-1-Gal4/RXRγ, luciferase reporter in Cos-7 cells; assay type: cell-based; conditions: for Emax: COS-7, induction level relative to reference XCT0135908 at 2×10^−5 M (=100%), read-out: hNurr1_RXRgFL Emax (%); for EC50: Cos-7 cells, NURR-1-Gal4/RXRγ, luciferase reporter, read-out: hNurr1_RXRgFL EC50
T2 construct: expressed in transfected cells; host or cells: Cos-7 cells

[3] = Brain penetration in rats after intravenous administration; assay type: in vivo; conditions: rat; for Kp at 4 h: male, Wistar, intravenous, 4 mg/kg, ratio of Cmax brain to Cmax plasma after the 4 hours of infusion, rats, read-out: Kp (partition coefficient between the brain and the plasma); for Cmax at 4 h: male Wistar rats, 4 mg/kg iv infusion into the jugular vein for 4 hours, plasma at end of infusion
Description: (§1) Three series of in vivo tests were carried out with compounds representative of the invention, for the purpose of determining their pharmacokinetic plasma profile and their brain penetration.
2. Study of the Brain Penetration in Rats After Intravenous Administration
Male Wistar rats (250-300 g) originating from the establishment Janvier, Le Genest-St-Isle, France were used for this study (4 rats per study). The animals were fed with standard feed for rodents (Purina Mills, St. Louis, Mo.), placed in cages and subjected to light/darkness cycles of 12 h/12 h, the room temperature being maintained at 22±2° C. and the humidity level at 55±10%. The rats were not deprived food before the administration. Water was provided at will throughout the study.
The test compound was administered intravenously at 4 mg/kg by infusion into the jugular vein for 4 hours. For the intravenous administration, the animals were infused with 12 mL/kg of a solution of the test compound, prepared in 2% Cremophor EL/0.9% NaCl.
The animals were sacrificed under anesthesia after 4 hours of infusion. The blood and the brain were collected from each sacrificed animal 0.5 mL of blood collected in 1.5 mL tubes containing 20 μL of evaporated anticoagulant (solution of sodium heparinate at 1000 IU/mL) was centrifuged at 4500 g for 3 min in order to obtain approximately 200 μL of plasma. The plasma was divided up into 2 aliquots of 70 μL minimum, which were stored at −20° C. until they were treated by protein precipitation and then analysis by liquid chromatography coupled to tandem mass spectrometry (LC-MS/MS) in order to quantify the compound tested.
The brains were immersed in liquid nitrogen directly after they were removed, then stored at −20° C. for analysis. The brains were then ground in the presence of an aqueous/organic solvent mixture in order to obtain a homogenate. These homogenates were then centrifuged and the compound tested was extracted from the supernatant obtained, by liquid-liquid extraction, and then quantified by LC-MS/MS.
The brain penetration in the rats is represented by the Kp, which is the partition coefficient between the brain and the plasma. It is calculated by the ratio of the concentration measured in the brain (Cmax brain) and the plasma (Cmax plasma) after the 4 hours of infusion.

[4] = tested on: dopaminergic neurons of primary culture of rat embryo mesencephalon treated with MPP+; experiment: Neuroprotection in primary culture of rat embryo mesencephalon treated with MPP+ (count of tyrosine hydroxylase expressing cells); assay type: cell-based; conditions: recombinant human BDNF 10 ng/mL = 100%, 2 days with MPP+
Description: Another in vitro test was carried out with the compounds according to the invention, for the purpose of verifying that the molecules indeed have the expected neuroprotective effect in vitro.
The compounds were tested in a model of primary culture of rat embryo mesencephalon treated with 1-methyl-4-phenylpyridinium (MPP+), which is the active metabolite of 1-methyl-4-phenyl-1,2,3,6-tetrahydropyridine (MPTP). MPP+ enters into dopananergic neurons via the dopamine transporter and causes the death of these dopaminergic neurons. The following protocol was used.
Gestating female rats (15 days of gestation) were euthanized and the rat embryos were removed. The mesencephalons were removed. The tissue was then dissociated mechanically and by using trypsin. The cells collected after centrifugation were distributed into 96-well plates and left to stand for 5 days. The culture conditions made it possible to obtain a cell layer composed of neurons (dopaminergic and others) and astrocytes. On the 6th day, the cells were optionally treated with MPP+ in the presence or absence of test compound. After 2 days of incubation, the cells were fixed and various cell labellings were carried out; staining of the nuclei with the Hoechst fluorescent label and immunolabelling of tyrosine hydroxylase. The cells expressing tyrosine hydroxylase were counted using an image analyzer coupled to an optical microscope.
Recombinant human BDNF trophic factor (10 ng/mL) was used as reference. The activities of the compounds are given as percentages of activity relative to the BDNF reference, the activity of which is arbitrarily defined as being equal to 100%.

[5] = Plasma pharmacokinetics in mice after oral administration; assay type: in vivo; conditions: mouse, male C57/Bl6 mice, oral 10 mg/kg; for AUC: sampling 15 min to 7 h, log-linear trapezoidal method, read-out: AUCplasma; for Cmax: suspension in 1% methylcellulose/0.1% Poloxamer 188
Description: as §1
1. Study of the Plasma Phannacokinectis in Mice After Oral Administration
Male C57/B16 mice (25-30 g) originating from the establishment Janvier, Le Genest-St-Isle, France were used for this study (9 mice per dose). The animals were fed with standard feed for rodents (Purina Mills, St. Louis, Mo.), placed in cages and subjected to light/darkness cycles of 12 h/12 h, the temperature of the room being maintained at 22±2° C. and the humidity level at 55±10%.
The mice were not deprived food before the administration. Water was provided at will throughout the study. The test compound was admistered orally at 10 mg/kg. For the oral administration at 10 mg/kg, the animals were green, by gavage, 10 mL/kg of a suspension of the test compound, prepared in 1% methylcellulose, 400 cps/0.1% Poloxamer 188/water.
The animals were sacrificed under anesthesia at times 15 min, 30 min, 1 h, 3 h and 7 h after gavage. The blood was collected at each time, and from each animal sacrificed 0.5 mL of blood collected in 1.5 mL tubes containing 20 μL of evaporated anticoagulant (solution of sodium heparinate at 1000 IU/mL) was centrifuged at 4500 g for 3 min in order to obtain approximately 200 μL of plasma. The plasma was divided up into 2 aliquots of 70 μL minimum, which were stoted at −20° C. until they were treated by protein precipitation and then analysis by liquid chromatography coupled to tandem mass spectrometry (LC-MS/MS) in order to quantify the compound tested.
The pharmacokinetic plasma parameters in the mice after oral administration were determined using a non-compartmental approach with the Phoenix WinNonLin software. The area under the curve (AUC0-1) was determined bv the log-linear trapezoidal method. The tesults are brought together in the following table.

T1 sequence (P19793 whole entry, the tested form may be a part): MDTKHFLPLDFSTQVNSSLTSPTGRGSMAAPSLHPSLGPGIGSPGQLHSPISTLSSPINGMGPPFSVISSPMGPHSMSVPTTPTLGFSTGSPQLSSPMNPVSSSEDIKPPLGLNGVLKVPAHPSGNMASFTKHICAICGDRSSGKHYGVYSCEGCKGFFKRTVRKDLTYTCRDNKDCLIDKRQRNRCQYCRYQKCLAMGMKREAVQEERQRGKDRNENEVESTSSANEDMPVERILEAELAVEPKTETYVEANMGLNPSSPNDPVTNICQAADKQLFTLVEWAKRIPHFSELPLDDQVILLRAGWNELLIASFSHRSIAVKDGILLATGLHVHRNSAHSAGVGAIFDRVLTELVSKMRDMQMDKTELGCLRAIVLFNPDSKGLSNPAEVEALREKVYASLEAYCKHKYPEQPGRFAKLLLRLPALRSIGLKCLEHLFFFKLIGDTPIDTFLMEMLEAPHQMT
T1 sequence (P43354 whole entry partner, the tested form may be a part): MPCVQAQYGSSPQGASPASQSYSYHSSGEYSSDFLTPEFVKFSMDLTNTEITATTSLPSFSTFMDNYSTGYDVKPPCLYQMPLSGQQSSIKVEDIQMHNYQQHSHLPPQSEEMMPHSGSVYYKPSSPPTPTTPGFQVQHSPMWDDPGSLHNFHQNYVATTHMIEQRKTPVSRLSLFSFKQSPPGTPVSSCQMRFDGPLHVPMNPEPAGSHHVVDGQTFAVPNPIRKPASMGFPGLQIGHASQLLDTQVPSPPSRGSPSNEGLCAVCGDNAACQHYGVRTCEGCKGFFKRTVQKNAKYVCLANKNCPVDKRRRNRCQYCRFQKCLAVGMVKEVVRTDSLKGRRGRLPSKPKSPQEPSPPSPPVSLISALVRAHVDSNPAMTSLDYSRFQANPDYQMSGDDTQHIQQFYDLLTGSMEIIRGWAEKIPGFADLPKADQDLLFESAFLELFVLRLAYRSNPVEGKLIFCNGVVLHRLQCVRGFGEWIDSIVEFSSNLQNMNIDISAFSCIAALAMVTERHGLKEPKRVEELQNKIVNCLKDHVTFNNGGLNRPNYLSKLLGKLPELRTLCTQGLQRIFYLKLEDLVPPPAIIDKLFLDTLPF
T1 sequence (P04386 1-147 partner limits assumed): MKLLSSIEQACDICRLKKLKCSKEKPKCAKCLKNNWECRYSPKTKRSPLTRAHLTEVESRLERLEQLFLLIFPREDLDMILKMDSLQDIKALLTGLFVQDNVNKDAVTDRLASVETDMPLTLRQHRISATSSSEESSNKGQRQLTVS
T2 sequence (P48443 whole entry, the tested form may be a part): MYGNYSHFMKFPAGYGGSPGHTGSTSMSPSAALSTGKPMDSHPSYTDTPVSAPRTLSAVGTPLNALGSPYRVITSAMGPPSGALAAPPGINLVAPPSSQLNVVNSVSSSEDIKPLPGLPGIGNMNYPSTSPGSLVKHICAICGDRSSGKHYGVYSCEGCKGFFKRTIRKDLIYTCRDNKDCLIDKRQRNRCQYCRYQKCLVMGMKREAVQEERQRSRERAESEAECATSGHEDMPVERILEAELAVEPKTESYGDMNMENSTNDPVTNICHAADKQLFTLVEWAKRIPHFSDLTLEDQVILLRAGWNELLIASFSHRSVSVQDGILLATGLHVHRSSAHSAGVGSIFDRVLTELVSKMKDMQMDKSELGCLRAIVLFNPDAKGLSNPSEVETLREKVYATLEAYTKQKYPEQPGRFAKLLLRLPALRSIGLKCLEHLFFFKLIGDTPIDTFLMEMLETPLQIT
T2 sequence (P43354 whole entry partner, the tested form may be a part): as the sequence (P43354 whole entry partner, the tested form may be a part) above
T2 sequence (P04386 1-147 partner limits assumed): as the sequence (P04386 1-147 partner limits assumed) above

SMILES	Emax [1]	EC50 [1]	Emax [2]	EC50 [2]	Kp at 4 h [3]	Cmax at 4 h [3]	percentage of activity relative to the BDNF reference ([4]; compound 1 μM)	percentage of activity relative to the BDNF reference ([4]; compound 10 μM)	AUC [5]	Cmax [5]
Cc1nnc(COc2ccc(C(F)(F)F)cc2-c2cccc(N3CC(C(=O)O)C3)c2)o1 [Example 110, 1-[3-[2-[(5-methyl-1,3,4-oxadiazol-2-yl)methoxy]-5-(trifluoromethyl)phenyl]phenyl]azetidine-3-carboxylic acid]	49%	1510 nM	32%	1720 nM	0.2	10100 ng/mL	74%	102%	40100 ng·h/mL	8710 ng/mL
O=C(O)C1CN(c2cccc(N3CCOc4cc(C(F)(F)F)ccc43)c2)C1 [Example 115, 1-[3-[7-(trifluoromethyl)-2,3-dihydro-1,4-benzoxazin-4-yl]phenyl]azetidine-3-carboxylic acid]	114%	58 nM	129%	22 nM	0.22	10600 ng/mL	103%	77%	51600 ng·h/mL	24400 ng/mL
O=C(O)C1CN(c2cccc(N3c4ccc(C(F)(F)F)cc4CC3Cc3ccccc3)c2)C1 (stereo not shown) [Example 147, 1-[3-[2-benzyl-5-(trifluoromethyl)indolin-1-yl]phenyl]azetidine-3 carboxylic acid]	68%	44 nM	50%	87 nM	0.12	7910 ng/mL	53%	104%	143000 ng·h/mL	33000 ng/mL
Cc1cc(-c2ccc(Cl)c(C(F)(F)F)c2)cc(N2CC(C(=O)O)C2)c1 [Example 22, 1-[3-[4-chloro-3-(trifluoromethyl)phenyl]-5-methylphenyl]azetidine-3-carboxylic acid]	91%	9 nM	87%	13 nM	0.14	9900 ng/mL	79%	103%	72200 ng·h/mL	18600 ng/mL
Cc1cc(-c2cc(C(C)(C)C)cc(C(C)(C)C)c2)cc(N2CC(C(=O)O)C2)c1 [Example 7, 1-[3-(3,5-di-tertbutylphenyl)-5-methylphenyl]azetidine-3-carboxylic acid]	100%	4 nM	97%	6 nM	0.76	6750 ng/mL	61%	72%	48600 ng·h/mL	12800 ng/mL
CN(C)Cc1cn(-c2cccc(N3CC(C(=O)O)C3)c2)c2ccc(C(F)(F)F)cc12 [Example 130, 1-[3-[3-(dimethylaminomethyl)-5-(trifluoromethyl)indol-1-yl]phenyl]azetidine-3-carboxylic acid]	113%	246 nM	109%	513 nM	0.13	9010 ng/mL	57%	103%	23000 ng·h/mL	13800 ng/mL
O=C(O)C1CN(c2cccc(N3CC4(CCC4)Oc4cc(C(F)(F)F)ccc43)c2)C1 [Example 113, 1-[3-[7-(trifluoromethyl)spiro[3H-1,4-benzoxazine-2,1′-cyclobutane]-4-yl]phenyl]azetidine-3-carboxylic acid]	140%	3 nM	139%	4 nM	1.2	3430 ng/mL	90%	80%	3340 ng·h/mL	2290 ng/mL
CCCC1Oc2cc(C(F)(F)F)ccc2N(c2cccc(N3CC(C(=O)O)C3)c2)C1=O (stereo not shown) [Example 122, 1-[3-[3-oxo-2-propyl-7-(trofluoromethyl)-1,4-benzoxazin-3-yl]phenyl]azetidine-3-caroxylic acid]	93%	13 nM	95%	14 nM	1.14	3860 ng/mL	92%	39%	34100 ng·h/mL	7840 ng/mL
Cc1cc(N2CC(C(=O)O)C2)cc(-n2ccc3cc(C(F)(F)F)ccc32)c1 [Example 50, 1-[3-methyl-5[5-(trifluoromethyl)indol-1-yl]phenyl]azetidine-3-carboxylic acid]	95%	2 nM	102%	5 nM	0.19	4920 ng/mL	74%	91%	24300 ng·h/mL	11400 ng/mL
CC(C)(C)c1cc(-c2cccc(N3CC(C(=O)O)C3)c2)cc(C(C)(C)C)c1 [Example 11, 1[3-(3,5-di-tert-butylphenyl)phenyl]azetidine-3-carboxylic acid]	105%	11 nM	100%	14 nM	1.22	4140 ng/mL	78%	88%	52000 ng·h/mL	10300 ng/mL
